Data taken from patent publication US20220401514A1, “ANTIMICROBIAL, BACTERIOPHAGE-DERIVED POLYPEPTIDES AND THEIR USE AGAINST GRAM-NEGATIVE AND ACID-FAST BACTERIA” (CONTRAFECT CORPORATION, priority 2019, published 2022).
Like-named read-outs stand apart in the source and are kept apart here.

What was measured:
[1] = tested on: carbapenem-resistant P. aeruginosa clinical isolate CFS-1292; test: MIC by modified CLSI broth microdilution against P. aeruginosa CFS-1292 (CAA, CAA + human serum); format: cell-based, Pseudomonas aeruginosa; details: for MIC (μg/mL) against CFS-1292 in 100% CAA (1st run/2nd run): 1st run or single value
[2] = tested on: Mycobacterium tuberculosis strains
Procedure: MIC values for various Chp peptides were determined using the CLSI method for broth microdilution in 96-well microtiter format.
Next, MIC values for various Chp peptides were determined using the CLSI method above for broth microdilution in 96-well microtiter format for two different Mycobacterium tuberculosis strains. The MIC was determined as explained above for the NTM strains.

[3] = Stability assessment in 100% CAA; format: in vitro ADME; design: unit not given beside the values
Procedure: Stability was assessed after incubation in 100% human serum at 37° C. after 10 minutes, 1 hour, and 2 hours.
Stability assessment was further conducted in 100% CAA and rabbit serum using the same methodology discussed above.

[4] = tested on: M. avium; test: 45 hr MIC against M. avium (NTM); format: cell-based, Mycobacterium avium; details: M. avium Chester ATCC 700898
[5] = tested on: M. scrofulaceum; test: 45 hr MIC against M. scrofulaceum (NTM); format: cell-based, Mycobacterium scrofulaceum; details: M. scrofulaceum Prissick and Masson ATCC 19981
[6] = tested on: M. kansasii Hauduroy ATCC 12478; test: 45 hr MIC against M. kansasii (NTM), Mueller Hinton broth; format: cell-based, Mycobacterium kansasii
[7] = tested on: carbapenem-resistant bacterial strains; test: organism not typed; format: cell-based
From the text: (§1) Determination of Minimal Inhibitory Concentrations (MIC).

[8] = tested on: S. maltophilia; test: MIC against S. maltophilia isolates; format: cell-based, Stenotrophomonas maltophilia; details: S. maltophilia isolates (n per peptide in table)
Procedure: as §1
In addition to the results discussed above in Example 3, further testing was conducted on several Chp peptides. MIC values were determined against different species, including P. aeruginosa, K. pneumoniae, A. baumannii, E. cloacae, E. coli, and S. maltophilia, and the results are presented below in Tables 40-45, wherein n=number of isolates tested for each species and MIC is measured as μg/mL.

[9] = tested on: Escherichia coli; test: microbe, parasite or virus in culture; format: cell-based; details: for MIC50 / MIC100 / MIC Range: E. coli isolates (n per peptide in table); for MIC: Escherichia coli ATCC 25922, CAA supplemented with human serum
Procedure: as §1
(§2) Additional MIC testing was performed for several peptides against the ESKAPE pathogens Escherichia coli, Enterobacter cloacae, Klebsiella pneumoniae, and Acinetobacter baumannii, in CAA supplemented with human serum (Table D).

[10] = tested on: Enterobacter cloacae; test: microbe, parasite or virus in culture; format: cell-based; details: for MIC50 / MIC100 / MIC Range: E. cloacae isolates (n per peptide in table); for MIC: Enterobacter cloacae ATCC 13047, CAA supplemented with human serum
Procedure: as §1, §2

[11] = tested on: Acinetobacter baumannii; test: microbe, parasite or virus in culture; format: cell-based; details: for MIC50 / MIC100 / MIC Range: A. baumannii isolates (n per peptide in table); for MIC: Acinetobacter baumannii ATCC BAA 747, CAA supplemented with human serum
[12] = tested on: Klebsiella pneumoniae; format: cell-based; details: for MIC50 / MIC100 / MIC Range: K. pneumoniae isolates (n per peptide in table); for MIC: Klebsiella pneumoniae HM-44, CAA supplemented with human serum
Procedure: as §1, §2

[13] = tested on: M. smegmatis; test: 45 hr MIC against M. smegmatis (NTM), Mueller Hinton broth; format: cell-based, Mycobacterium smegmatis
[14] = tested on: M. intracellulare; test: 45 hr MIC against M. intracellulare (NTM); format: cell-based, Mycobacterium intracellulare; details: M. intracellulare (Cuttino and McCabe) Runyon ATCC 13950
[15] = tested on: M. fortuitum; test: 45 hr MIC against M. fortuitum (NTM); format: cell-based, Mycobacterium fortuitum; details: M. fortuitum subsp. Fortuitum da Costa Cruz. ATCC 6841
[16] = tested on: Pseudomonas aeruginosa; test: microbe, parasite or virus in culture; format: cell-based; details: P. aeruginosa isolates (n per peptide in table)
[17] = Mycobacterium tuberculosis (Zopf) Lehmann and Neumann ATCC 25177
[18] = Mycobacterium tuberculosis (Zopf) Lehmann and Neumann ATCC 35817
[19] = carbapenem-resistant isolate PA19
[20] = carbapenem-resistant isolate PA20
[21] = carbapenem-resistant isolate PA21
[22] = carbapenem-resistant isolate PA22
[23] = carbapenem-resistant isolate PA23
[24] = carbapenem-resistant isolate PA24
[25] = carbapenem-resistant isolate WLC-452

Sequence | MIC (μg/mL) against CFS-1292 in 100% CAA (1st run/2nd run) [1] [µg/mL] | MIC [2, 17] [µg/mL] | MIC [2, 18] [µg/mL] | MIC (100% CAA) [3] | 45 hr MIC [4] [µg/mL] | 45 hr MIC [5] [µg/mL] | 45 hr MIC [6] [µg/mL] | MIC [7, 19] [µg/mL] | MIC [7, 20] [µg/mL] | MIC [7, 21] [µg/mL] | MIC [7, 22] [µg/mL] | MIC [7, 23] [µg/mL] | MIC [7, 24] [µg/mL] | MIC [7, 25] [µg/mL] | MIC50 [8] [µg/mL] | MIC100 [8] [µg/mL] | MIC50 [11] [µg/mL] | MIC100 [11] [µg/mL] | MIC Range [11] [µg/mL] | MIC50 [12] [µg/mL] | also measured
MSKKRSRMSRRRSKKLFSKTALRTKSVNTRPPMRGGFRF [Chp8] | 0.5 | 32 | 8 | 0.5 | 8 | 4 | 4 | 1 | >8 | >8 | >8 | >8 | 8 | 4 | >8 | >8 | 0.5 | 1 | 0.25 to 2 | 4 | MIC (μg/mL) against CFS-1292 in CAA + […] human serum [1]: 2 µg/mL; MIC50 [9]: 2 µg/mL; MIC100 [9]: 4 µg/mL; MIC Range [9]: 0.5 to 4 µg/mL; MIC [9]: 0.5 µg/mL; MIC50 [10]: 2 µg/mL; MIC100 [10]: 4 µg/mL; MIC Range [10]: 1 to 8 µg/mL; MIC [10]: 16 µg/mL; MIC [11]: 2 µg/mL; MIC100 [12]: 8 µg/mL; MIC Range [12]: 2 to 8 µg/mL; MIC [12]: 4 µg/mL; 45 hr MIC ([13]; M. smegmatis MC^2 155, Run #1): 4 µg/mL; 45 hr MIC ([13]; M. smegmatis MC^2 155, Run #2): 8 µg/mL; 45 hr MIC [14]: 4 µg/mL; 45 hr MIC [15]: 2 µg/mL; MIC50 [16]: 8 µg/mL; MIC100 [16]: >8 µg/mL
MSLRRHKLSRKASKRIFRKGASRTKTLNTRATPMRGGFRI [Chp9] | 8 | 32 | 16 | 2 | >64 | 8 | 8 | 8 | >8 | >8 | >8 | >8 | >8 | 8 | >8 | >8 | 2 | 2 | 0.5 to 2 | >8 | MIC50 [9]: 2 µg/mL; MIC100 [9]: 8 µg/mL; MIC Range [9]: 0.5 to 8 µg/mL; MIC [9]: 1 µg/mL; MIC50 [10]: 4 µg/mL; MIC100 [10]: >8 µg/mL; MIC [10]: 32 µg/mL; MIC [11]: 4 µg/mL; MIC100 [12]: >8 µg/mL; MIC Range [12]: >8 µg/mL; MIC [12]: 1 µg/mL; 45 hr MIC ([13]; M. smegmatis MC^2 155, Run #1): 4 µg/mL; 45 hr MIC ([13]; M. smegmatis MC^2 155, Run #2): 8 µg/mL; 45 hr MIC [14]: 4 µg/mL; 45 hr MIC [15]: 4 µg/mL; MIC50 [16]: >8 µg/mL; MIC100 [16]: >8 µg/mL
MRRKVKNTKRHQWRLTHSARSIKRANIMPSNPRGGRRF [Spi2] | 16 | 8 | 8 | 4 | >64 | 8 | 1 | >8 | >8 | >8 | >8 | >8 | >8 | >8 | >8 | >8 | 2 | 2 | 2 to 8 | >8 | MIC (μg/mL) against CFS-1292 in CAA + […] human serum [1]: 0.25 µg/mL; MIC Range [8]: >8 µg/mL; MIC50 [9]: 4 µg/mL; MIC100 [9]: >8 µg/mL; MIC [9]: 0.25 µg/mL; MIC50 [10]: >8 µg/mL; MIC100 [10]: >8 µg/mL; MIC [10]: 4 µg/mL; MIC [11]: 16 µg/mL; MIC100 [12]: >8 µg/mL; MIC Range [12]: >8 µg/mL; MIC [12]: 16 µg/mL; 45 hr MIC ([13]; M. smegmatis MC^2 155, Run #1): 4 µg/mL; 45 hr MIC ([13]; M. smegmatis MC^2 155, Run #2): 4 µg/mL; 45 hr MIC [14]: >64 µg/mL; 45 hr MIC [15]: 4 µg/mL; MIC50 [16]: >8 µg/mL; MIC100 [16]: >8 µg/mL; MIC Range [16]: >8 µg/mL
MRRPRKMNYKKSKRMFSRTAARTHRKNSLRGSRPMRGGIRL [Gkh1] | 1 | 32 | 4 | 0.5 | 4 | 8 | 2 | 2 | >8 | >8 | >8 | >8 | 8 | 2 | >8 | >8 | 0.5 | 1 | 0.25 to 2 | 4 | MIC (μg/mL) against CFS-1292 in CAA + […] human serum [1]: 1 µg/mL; MIC50 [9]: 2 µg/mL; MIC100 [9]: 2 µg/mL; MIC Range [9]: 0.5 to 8 µg/mL; MIC [9]: 1 µg/mL; MIC50 [10]: 1 µg/mL; MIC100 [10]: 2 µg/mL; MIC Range [10]: 0.5 to 8 µg/mL; MIC [10]: 32 µg/mL; MIC [11]: 2 µg/mL; MIC100 [12]: 8 µg/mL; MIC Range [12]: 1 to 8 µg/mL; MIC [12]: 0.5 µg/mL; 45 hr MIC ([13]; M. smegmatis MC^2 155, Run #1): 4 µg/mL; 45 hr MIC ([13]; M. smegmatis MC^2 155, Run #2): 4 µg/mL; 45 hr MIC [14]: 4 µg/mL; 45 hr MIC [15]: 1 µg/mL; MIC50 [16]: 8 µg/mL; MIC100 [16]: >8 µg/mL
MAYRGFKTSRVVKHRVRRRWFNHRRRYR [Spi1] | 2 | 32 | 16 | 1 | >64 | 2 | 0.5 | 2 | 4 | 8 | 4 | 8 | 4 | 2 | 2 | 2 | 1 | 1 | 1 | 2 | MIC (μg/mL) against CFS-1292 in CAA + […] human serum [1]: 0.25 µg/mL; MIC100 [12]: 4 µg/mL; MIC Range [12]: 2 to 4 µg/mL; 45 hr MIC ([13]; M. smegmatis MC^2 155, Run #1): 2 µg/mL; 45 hr MIC ([13]; M. smegmatis MC^2 155, Run #2): 16 µg/mL; 45 hr MIC [14]: 4 µg/mL; 45 hr MIC [15]: 8 µg/mL; MIC50 [16]: 4 µg/mL; MIC100 [16]: 8 µg/mL; MIC Range [16]: 2 to 8 µg/mL
